Test results reported in ChEMBL document CHEMBL1201862, “PubChem BioAssay data set” (2004).
Activity calls are given as the source filed them.

What was measured:
cells = format: functional, cell-based
BJ [1] = assay: growth inhibition of engineered Ras-driven BJ cells – cell-based, alamar blue fluorescence, cherrypicked samples, dose response (AID 2631); format: functional; conditions: Homo sapiens;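 note: confirmatory dose-response assay in RAS-dependent BJ fibroblasts engineered with TERT, LT and ST, with cytotoxicity read by fluorescence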
[2] = Luminescence Cell-Based Dose HTS Response to Identify Inhibitors of 5'UTR Stem-Loop Driven Prion Protein mRNA Translation in H4-C Neuroglioblastoma Cells. [Related pubchem assays (depositor defined):AID1814, AID1827]; format: functional
BJ [3] = assay: cells; format: functional, cell-based; conditions: Homo sapiens
[4] = Luminescence Cell-Based Dose Response HTS to Identify Inhibitors of Luciferase Translation or Activity in H4-C Neuroglioblastoma Cells. [Related pubchem assays: 1813 (Primary HTS), 1827 (Project Summary)]; format: functional
[5] = luciferase reporter signal suppression in cells – H4 neuroglioma cells, luminescence, dose response (AID 1990); format: functional, cell-based
[6] = Luminescence Cell-Based Dose Confirmation HTS to Identify Inhibitors of 5'UTR Stem-Loop Driven Alpha-Synuclein mRNA Translation in H4 Neuroglioblastoma Cells. [Related pubchem assays: 1827 (Project Summary), 1813 (Primary HTS)]; format: functional
[7] = DRD fibroblast viability loss – cell-based, non-viral oncogenic, luminescence, dose response (AID 1934); format: functional; conditions: Homo sapiens
[8] = Luminescence Cell-Based Dose Response HTS to Identify Activators of 5'UTR Stem-Loop Driven Prion Protein mRNA Translation in H4-C Neuroglioblastoma Cells. [Related pubchem assays: 1829 (Project Summary), 1814 (Primary HTS)]; format: functional
[9] = Luminescence Cell-Based Dose Response HTS to Identify Inhibitors of 5'UTR Stem-Loop Driven Prion Protein mRNA Translation in H4 Neuroglioblastoma Cells. [Related pubchem assays: 1827 (Project Summary), 1813 (Primary HTS)]; format: functional
[10] = alpha-synuclein stem-loop translation blockers – luminescence, H4 neuroglioblastoma cells, dose confirmation, confirmation (AID 2454); format: functional, cell-based;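 note: H4 neuroglioblastoma cells carrying an alpha-synuclein 5'UTR luciferase reporter; potency for inhibition of the luciferase signal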
BJ [11] = assay: BJ-TERT-LT-ST fibroblast viability loss – cell-based, RAS-independent, luminescence, dose response (AID 1935); format: functional; conditions: Homo sapiens;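 note: BJ fibroblasts immortalized with TERT plus LT and ST oncogenes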
[12] = alpha-synuclein stem-loop luciferase translation blockers – H4 neuroglioma cells, luminescence, confirmation (AID 1988); format: functional, cell-based
[13] = Luminescence Cell-Based Dose Response HTS to Identify Activators of Luciferase Translation or Activity in H4-C Neuroglioblastoma Cells. [Related pubchem assays: 1829 (Project Summary), 1814 (Primary HTS)]; format: functional
BJ [14] = assay: BJ-TERT fibroblast viability loss – cell-based, RAS-independent, luminescence, dose response (AID 1933); format: functional; conditions: Homo sapiens
[15] = luciferase reporter signal reduction – luminescence, H4-C neuroglioblastoma cells, dose response (AID 2458); format: functional, cell-based;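 note: H4 neuroglioblastoma cells stably carrying a luciferase reporter gene fusion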
Phospholipase D1 = Phospholipase D1 (Homo sapiens, UniProt Q13393); assay: cellular phospholipase D1 inhibition IC50 – cell-based, dose response (AID 602151); format: functional;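 note: cellular PLD1 assay in Calu-1 cells stimulated with PMA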
Sequence of Phospholipase D1 (Q13393 whole entry): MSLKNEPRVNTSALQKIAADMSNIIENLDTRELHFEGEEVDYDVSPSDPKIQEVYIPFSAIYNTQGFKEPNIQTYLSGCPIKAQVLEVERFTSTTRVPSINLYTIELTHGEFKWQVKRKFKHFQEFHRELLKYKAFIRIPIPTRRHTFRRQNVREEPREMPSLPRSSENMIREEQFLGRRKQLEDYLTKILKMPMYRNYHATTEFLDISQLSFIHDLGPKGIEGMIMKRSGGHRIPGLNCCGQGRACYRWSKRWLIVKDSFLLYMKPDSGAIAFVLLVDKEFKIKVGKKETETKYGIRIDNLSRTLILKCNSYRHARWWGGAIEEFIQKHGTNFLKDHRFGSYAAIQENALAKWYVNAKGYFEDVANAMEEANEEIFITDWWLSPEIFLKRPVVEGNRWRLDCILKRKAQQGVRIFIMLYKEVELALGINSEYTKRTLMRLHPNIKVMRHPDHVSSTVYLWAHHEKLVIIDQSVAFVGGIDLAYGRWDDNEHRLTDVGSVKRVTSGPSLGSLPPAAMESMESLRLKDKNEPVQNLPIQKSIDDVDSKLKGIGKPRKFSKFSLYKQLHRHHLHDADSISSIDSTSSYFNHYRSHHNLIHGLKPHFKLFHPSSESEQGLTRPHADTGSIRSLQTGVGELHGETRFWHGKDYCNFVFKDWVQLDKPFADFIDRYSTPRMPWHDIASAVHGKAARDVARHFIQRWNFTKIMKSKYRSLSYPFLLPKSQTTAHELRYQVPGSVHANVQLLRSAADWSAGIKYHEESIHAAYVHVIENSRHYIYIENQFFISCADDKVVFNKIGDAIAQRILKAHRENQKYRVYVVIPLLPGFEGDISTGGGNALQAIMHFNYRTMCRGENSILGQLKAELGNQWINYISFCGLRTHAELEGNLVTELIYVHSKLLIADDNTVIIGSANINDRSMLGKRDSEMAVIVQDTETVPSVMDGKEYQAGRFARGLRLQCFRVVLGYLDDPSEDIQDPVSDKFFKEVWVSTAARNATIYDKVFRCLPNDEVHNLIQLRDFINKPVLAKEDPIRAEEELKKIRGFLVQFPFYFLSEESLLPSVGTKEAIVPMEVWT

Phospholipase D2 = Phospholipase D2 (Homo sapiens, UniProt O14939); assay: cellular phospholipase D2 inhibition IC50 – cell-based, dose response (AID 602147); format: functional;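 note: cellular assay in HEK293 cells overexpressing GFP-tagged PLD2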
Sequence of Phospholipase D2 (O14939 whole entry): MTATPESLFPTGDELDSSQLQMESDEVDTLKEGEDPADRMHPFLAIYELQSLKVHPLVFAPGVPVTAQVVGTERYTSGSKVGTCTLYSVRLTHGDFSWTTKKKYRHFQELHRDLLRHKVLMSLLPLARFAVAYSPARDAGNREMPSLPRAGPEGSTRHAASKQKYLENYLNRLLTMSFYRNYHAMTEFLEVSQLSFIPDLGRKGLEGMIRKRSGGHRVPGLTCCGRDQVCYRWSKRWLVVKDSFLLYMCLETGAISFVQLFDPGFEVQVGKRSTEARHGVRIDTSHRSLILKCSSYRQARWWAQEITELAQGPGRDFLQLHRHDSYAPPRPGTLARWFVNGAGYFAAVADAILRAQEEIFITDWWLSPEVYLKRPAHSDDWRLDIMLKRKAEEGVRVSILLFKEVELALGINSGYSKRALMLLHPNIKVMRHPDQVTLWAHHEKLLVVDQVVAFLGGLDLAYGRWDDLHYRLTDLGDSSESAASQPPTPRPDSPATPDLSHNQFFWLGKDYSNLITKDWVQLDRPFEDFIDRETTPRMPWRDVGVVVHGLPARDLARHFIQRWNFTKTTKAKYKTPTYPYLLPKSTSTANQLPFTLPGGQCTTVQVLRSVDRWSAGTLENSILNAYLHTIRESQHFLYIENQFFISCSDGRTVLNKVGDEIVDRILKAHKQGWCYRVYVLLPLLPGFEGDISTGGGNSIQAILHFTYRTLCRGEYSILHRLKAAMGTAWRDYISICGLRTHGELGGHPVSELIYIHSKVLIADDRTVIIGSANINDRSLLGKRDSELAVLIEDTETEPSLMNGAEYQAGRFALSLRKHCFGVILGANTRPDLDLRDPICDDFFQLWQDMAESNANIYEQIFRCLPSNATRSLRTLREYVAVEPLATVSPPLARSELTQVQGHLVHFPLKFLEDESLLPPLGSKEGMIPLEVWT

[16] = target: Multidrug resistance protein CDR1 (Candida albicans, UniProt P43071); assay: inhibition of Nile Red efflux via Candida CDR1 – S. cerevisiae AD1-8u, singleplex, Cherry Pick1 hits, dose response (AID 588606); format: functional
[17] = target: Benomyl/methotrexate resistance protein (Candida albicans, UniProt P28873); assay: Candida albicans Mdr1 pump inhibition curves – singleplex, Cherry Pick1 hits, dose response (AID 588608); format: functional
[18] = A cell-based HTS for delayed death inhibitors of the malarial parasite plastid Measured in Microorganism System Using Plate Reader - 2126-02_Inhibitor_Dose_DryPowder_Activity.; format: functional, organism-based
[19] = A cell-based HTS for delayed death inhibitors of the malarial parasite plastid Measured in Microorganism System Using Plate Reader - 2126-01_Inhibitor_Dose_DryPowder_Activity.; format: functional, organism-based
[20] = target: Casein kinase I isoform delta (Homo sapiens, UniProt P48730); format: functional;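 note: measured as one member (CSNK1D) of a kinome panel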
[21] = target: Protein kinase C delta type (Homo sapiens, UniProt Q05655); format: functional
Sequence of Protein kinase C delta type (Q05655 whole entry, canonical isoform): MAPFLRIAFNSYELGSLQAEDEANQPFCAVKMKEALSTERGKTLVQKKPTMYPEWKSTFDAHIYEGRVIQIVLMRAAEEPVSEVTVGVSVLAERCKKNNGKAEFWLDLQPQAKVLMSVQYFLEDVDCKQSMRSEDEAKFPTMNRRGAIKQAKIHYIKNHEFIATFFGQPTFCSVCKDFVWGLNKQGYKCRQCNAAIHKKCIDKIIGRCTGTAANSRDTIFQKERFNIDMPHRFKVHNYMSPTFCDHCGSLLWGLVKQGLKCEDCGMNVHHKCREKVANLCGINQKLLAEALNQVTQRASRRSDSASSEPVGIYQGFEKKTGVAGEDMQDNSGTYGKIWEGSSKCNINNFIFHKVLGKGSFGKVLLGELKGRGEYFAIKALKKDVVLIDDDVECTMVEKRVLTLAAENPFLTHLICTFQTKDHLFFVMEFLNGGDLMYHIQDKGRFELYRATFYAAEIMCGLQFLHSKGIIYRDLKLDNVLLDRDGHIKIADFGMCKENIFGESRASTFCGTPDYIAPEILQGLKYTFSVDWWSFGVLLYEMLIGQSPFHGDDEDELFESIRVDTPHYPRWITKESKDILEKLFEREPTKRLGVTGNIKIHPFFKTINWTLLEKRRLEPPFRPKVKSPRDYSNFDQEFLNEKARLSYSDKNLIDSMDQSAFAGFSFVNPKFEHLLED

[22] = target: Casein kinase I isoform alpha (Homo sapiens, UniProt P48729); format: functional
Sequence of Casein kinase I isoform alpha (P48729 whole entry, canonical isoform): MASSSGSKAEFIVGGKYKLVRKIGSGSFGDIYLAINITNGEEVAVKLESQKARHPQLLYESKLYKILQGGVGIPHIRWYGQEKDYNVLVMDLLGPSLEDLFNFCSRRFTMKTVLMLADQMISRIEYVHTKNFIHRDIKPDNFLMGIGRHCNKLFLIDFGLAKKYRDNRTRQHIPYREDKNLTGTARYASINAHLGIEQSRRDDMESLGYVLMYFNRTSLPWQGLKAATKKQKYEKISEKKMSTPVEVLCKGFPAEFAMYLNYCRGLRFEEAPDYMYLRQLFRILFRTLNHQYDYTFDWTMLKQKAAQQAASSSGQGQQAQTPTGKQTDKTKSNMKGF

[23] = target: Calcium/calmodulin-dependent protein kinase type II subunit delta (Homo sapiens, UniProt Q13557); format: functional
[24] = target: Calcium/calmodulin-dependent protein kinase type II subunit gamma (Homo sapiens, UniProt Q13555); format: functional
[25] = target: Serine/threonine-protein kinase PAK 1 (Homo sapiens, UniProt Q13153); format: functional
[26] = target: Calcium/calmodulin-dependent protein kinase type II subunit beta (Homo sapiens, UniProt Q13554); format: functional
[27] = target: Serine/threonine-protein kinase TAO1 (Homo sapiens, UniProt Q7L7X3); format: functional
Sequence of Serine/threonine-protein kinase TAO1 (Q7L7X3 whole entry): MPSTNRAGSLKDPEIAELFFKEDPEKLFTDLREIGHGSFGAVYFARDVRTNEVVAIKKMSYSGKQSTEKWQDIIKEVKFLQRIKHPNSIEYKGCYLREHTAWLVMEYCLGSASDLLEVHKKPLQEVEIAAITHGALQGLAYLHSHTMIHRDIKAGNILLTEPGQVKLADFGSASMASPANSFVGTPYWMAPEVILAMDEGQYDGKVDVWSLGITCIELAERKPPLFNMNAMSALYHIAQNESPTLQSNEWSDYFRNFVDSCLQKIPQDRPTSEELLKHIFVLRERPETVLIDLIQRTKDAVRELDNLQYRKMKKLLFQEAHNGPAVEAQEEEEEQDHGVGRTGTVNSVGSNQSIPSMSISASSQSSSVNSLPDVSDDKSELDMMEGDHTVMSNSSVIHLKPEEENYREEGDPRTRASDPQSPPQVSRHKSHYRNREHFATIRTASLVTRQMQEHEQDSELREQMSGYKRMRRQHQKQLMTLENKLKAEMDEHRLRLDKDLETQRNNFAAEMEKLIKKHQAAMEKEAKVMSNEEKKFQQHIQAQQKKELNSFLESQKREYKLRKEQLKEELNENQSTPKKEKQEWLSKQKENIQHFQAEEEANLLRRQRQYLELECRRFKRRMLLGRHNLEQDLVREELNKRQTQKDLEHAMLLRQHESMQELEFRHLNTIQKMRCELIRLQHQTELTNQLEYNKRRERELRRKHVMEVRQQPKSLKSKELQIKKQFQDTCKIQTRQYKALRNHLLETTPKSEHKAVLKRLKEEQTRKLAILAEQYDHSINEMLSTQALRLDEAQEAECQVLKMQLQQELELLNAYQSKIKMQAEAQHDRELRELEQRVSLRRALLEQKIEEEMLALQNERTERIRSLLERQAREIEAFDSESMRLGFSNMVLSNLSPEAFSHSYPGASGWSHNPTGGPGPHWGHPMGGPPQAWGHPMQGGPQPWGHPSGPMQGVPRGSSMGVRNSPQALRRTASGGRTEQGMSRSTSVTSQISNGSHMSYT

INS1 [28] = assay: suppression of NO production in INS-1E cells – cell-based, Griess absorbance, dry powder, set 2, dose response (AID 488868); format: functional; conditions: Rattus norvegicus
INS1 [29] = assay: suppression of NO production in INS-1E cells – cell-based, Griess absorbance, dry powder, dose response (AID 488866); format: functional; conditions: Rattus norvegicus
[30] = suppression of NO production in INS-1E cells – cell-based, Griess absorbance, dry powder, set 3, dose response (AID 488870); format: functional; conditions: Rattus norvegicus
Cytochrome P450 2C9 = Cytochrome P450 2C9 (Homo sapiens, UniProt P11712)
DNA topoisomerase = DNA topoisomerase (Yersinia pestis, UniProt A0A2S9PM60); assay: Yersinia topoisomerase I cleavage product accumulation – biochemical, cherry-pick, dose response (AID 588525)
Sequence of DNA topoisomerase (A0A2S9PM60 whole entry): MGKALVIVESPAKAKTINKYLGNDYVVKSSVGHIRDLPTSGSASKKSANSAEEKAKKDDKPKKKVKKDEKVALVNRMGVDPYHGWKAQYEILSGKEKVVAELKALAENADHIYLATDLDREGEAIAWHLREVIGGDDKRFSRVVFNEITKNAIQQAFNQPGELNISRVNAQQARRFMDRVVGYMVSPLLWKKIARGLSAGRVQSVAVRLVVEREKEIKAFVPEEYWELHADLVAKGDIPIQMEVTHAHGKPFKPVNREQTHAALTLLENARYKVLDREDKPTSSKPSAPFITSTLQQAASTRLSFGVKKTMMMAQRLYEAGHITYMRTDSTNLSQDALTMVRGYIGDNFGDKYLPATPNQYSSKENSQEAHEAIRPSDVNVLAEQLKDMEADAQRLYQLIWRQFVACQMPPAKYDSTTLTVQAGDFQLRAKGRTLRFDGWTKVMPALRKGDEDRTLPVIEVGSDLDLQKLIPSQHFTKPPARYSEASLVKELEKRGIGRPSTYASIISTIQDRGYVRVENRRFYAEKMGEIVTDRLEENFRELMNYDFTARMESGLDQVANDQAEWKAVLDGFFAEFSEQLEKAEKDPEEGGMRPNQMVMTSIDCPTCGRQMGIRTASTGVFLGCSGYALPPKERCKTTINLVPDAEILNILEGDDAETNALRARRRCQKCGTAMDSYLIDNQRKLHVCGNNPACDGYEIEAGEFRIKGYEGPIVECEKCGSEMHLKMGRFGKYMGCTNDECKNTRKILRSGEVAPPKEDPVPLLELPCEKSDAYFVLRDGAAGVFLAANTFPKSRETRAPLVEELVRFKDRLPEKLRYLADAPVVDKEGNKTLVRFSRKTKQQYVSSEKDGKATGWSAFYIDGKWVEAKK

Cytochrome P450 2D6 = Cytochrome P450 2D6 (Homo sapiens, UniProt P10635);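 note: CYP2D6 member of a cytochrome P450 panel assay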

CCOC(=O)c1[nH]c(C)c(C(=O)N2CCc3ccccc32)c1C
active: EC50 (cells) 1220 nM | EC50 (BJ [1]) 252 nM | EC50 [2] 2330 nM | EC50 (BJ [3]) 10800 nM | EC50 [4] 1010 nM | EC50 [6] 2130 nM | EC50 [7] 656 nM | EC50 [9] 4650 nM | EC50 [10] 1300 nM | EC50 [12] < 100 nM | EC50 [15] 1070 nM
inconclusive: EC50 [5] 4630 nM | EC50 [8] 353 nM | EC50 (BJ [11]) 420 nM | EC50 [13] 630 nM | EC50 (BJ [14]) 704 nM

C[C@@H](CN1CCC(n2c(=O)[nH]c3ccccc32)CC1)NC(=O)CCc1ccc(F)cc1
active: IC50 (Phospholipase D1) 260 nM | IC50 (Phospholipase D2) 9000 nM

Cc1ccc(S(=O)(=O)N2CCOCC2)cc1NC(=O)COC(=O)CNC(=O)c1ccccc1
active: EC50 [16] 18 nM | EC50 [17] 65 nM

C[C@@H]1CN([C@@H](C)CO)C(=O)c2cc(NC(=O)Nc3ccccc3)ccc2O[C@@H](C)CCCCO[C@H]1CN(C)C(=O)OC(C)(C)C
active: AC50 [18] 1370 nM | AC50 [19] 2410 nM

CCCCOc1ccccc1CCc1cccc2nc(N)nc(N)c12
active: Ki [20] 3980 nM | Ki [21] 5010 nM | Ki [22] 1580 nM | Ki [23] 5010 nM | Ki [24] 3160 nM | Ki [25] 3160 nM | Ki [26] 2510 nM | Ki [27] 10000 nM

C[C@@H]1CN([C@@H](C)CO)C(=O)c2cccc(NC(=O)Nc3cccc4ccccc34)c2O[C@H]1CN(C)S(=O)(=O)c1cccc(F)c1
active: AC50 (INS1 [28]) 29600 nM | AC50 (INS1 [29]) 32100 nM | AC50 [30] 22900 nM

Clc1cccc(CSc2nnc(-c3sccc3-n3cccc3)o2)c1
active: AC50 (DNA topoisomerase) 5150 nM
inconclusive: AC50 (Cytochrome P450 2C9) | AC50 (Cytochrome P450 2D6) 398 nM
